# Results from patent publication US10898548B2, “Modulators of protein tyrosine phosphatase and uses thereof” (LEUVAS THERAPEUTICS, priority 2015, dated 2021).
# Marks after values point to notes of the source that are not given here.
# Experiments:
# [1] = system: protein tyrosine phosphorylation in fMLP-stimulated monocytes; assay: Kinexus antibody microarray of tyrosine phosphorylation in fMLP-stimulated monocytes; assay type: cell-based, human; design: key to Functional effect of P1-WD on BTK / Functional effect of P1-WD on CDK2 / Functional effect of P1-WD on CTTN / Functional effect of P1-WD on DAB1 / Functional effect of P1-WD on DOK2 / Functional effect of P1-WD on ERBB2 / Functional effect of P1-WD on GRIN2B / Functional effect of P1-WD on ITGB1 / Functional effect of P1-WD on JAK2 / Functional effect of P1-WD on KDR / Functional effect of P1-WD on KIT / Functional effect of P1-WD on LIMK1 / Functional effect of P1-WD on MET / Functional effect of P1-WD on PDGFRA / Functional effect of P1-WD on PDGFRB / Functional effect of P1-WD on PRKCD / Functional effect of P1-WD on SHC1 / Functional effect of P1-WD on STAT1 / Functional effect of P1-WD on STAT2 / Functional effect of P1-WD on STAT3 / Functional effect of P1-WD on STAT5A / Functional effect of P1-WD on VCL / Functional effect of P1-WD on ABL1 / Functional effect of P1-WD on BLNK / Functional effect of P1-WD on BMX: inhibition (IN); activation (ACT)
# Text: To identify PTPRG targets in the context of fMLP signaling, we employed a high throughput antibody array technology using the P1-WD approach and fMLP-potentiated signaling networks, since this directly correlates with integrin triggering and mediated rapid adhesion. To analyze the phosphoproteome we used the comprehensive high throughput service developed by Kinexus, CA, USA. The Kinexus antibody microarray includes about 500 pan-specific and over 350 phosphosite-specific antibodies per chip, in duplicate spots. The analysis covers a variety of selected cell signaling proteins regulating cell proliferation, stress, apoptosis, adhesion, secretion, motility and other biological processes. Monocytes were treated with 50 μM P1 or P1-WD peptides for 60 min. at 37° C. and then stimulated with 50 nM fMLP for 3 min. Cells were immediately lysed according to Kinexus protocol and the samples were sent to Kinexus for microarray analysis. Data were normalized to control cells and statistically filtered by Kinexus to identify the most significant best hits. The analysis was, then, focused on phosphotyrosine-specific antibodies. Network inference analysis was performed within Cytoscape 3.1 bioinformatics environment by using previously established interatomic datasets compiled from public data-bases. The compiled protein-protein interatomic data-set was manually curated to remove self-loops and duplicate edges; different protein IDs were normalized to HGNC standard IDs. The set of 31 identified proteins whose tyrosine phosphorylation status was affected by PTPRG activity was used as bioinformatics probe allowing sub-network reconstruction. Directed node centrality indexes were computed with the Cytoscape plug-in Centiscape 2.1 (Scardoni G, et al., 2009, Bioinformatics 25: 2857-2859). Network modular decomposition was executed with the Cytoscape plug-in MCODE (Bader G, et al., 2003, BMC Bioinformatics 4: 2). Literature data mining was performed by multiple data base interrogation, mainly based on Phosphosite, PhosphoELM, PhosphoNet and KEA.
# Data analysis identified 31 molecules whose phosphorylation was modified in a statistically significant manner (Table 9). Values in % columns are percentage increase or decrease of protein tyrosine phosphorylation upon fMLP-triggering in P1-WD-treated vs P1-control treated monocytes. For some proteins (For some proteins (EGFR, INSR, KDR, KIT, PDGFRA, PTK2, PXN, SRC and ZAP70) multiple phosphotyrosine residues are detected. From left to right, columns are HGNC protein symbols (in alphabetic order), phosphosites (p-Sites), changes of phosphorylation (induced by P1-WD) and the putative functional effect, inferred from literature data-mining. EGFR and PTK2 are highlighted in gray since the functional effect could not be unambiguously inferred. The functional effect of P1-WD in the far right column indicates either inhibition (IN) or activation (ACT).
# [2] = system: Hbb^th3/+ mice (β-thalassemia model); assay: circulating erythroblasts; assay type: in vivo, mouse; conditions: TAT-ICD 5 mg/kg i.p once every other day for 3 weeks
# [3] = P1-WD vs P1, 50 μM 60 min, 50 nM fMLP 3 min
# [4] = putative, inferred from literature data-mining
# [5] = putative, inferred from literature data-mining, per p-Site
substance,measurement,setting,value
"P1-WD: fusion Trojan peptide SEQ ID 3: Penetratin, glycine, PTPRG wedge domain aa 831-856; RQIKIWFQNRRMKWKKGKQFVKHIGELYSNNQHGFSEDFEEVQ (listed as Homo sapiens)",change of ABL1 Y412 tyrosine phosphorylation,[1]; [3],−40%
same,change of BLNK Y84 tyrosine phosphorylation,[1]; [3],19%
same,change of BMX Y40 tyrosine phosphorylation,[1]; [3],−7%
same,change of BTK Y223 tyrosine phosphorylation,[1]; [3],−58%
same,change of CDK2 Y15 tyrosine phosphorylation,[1]; [3],282%
same,change of CTTN Y470 tyrosine phosphorylation,[1]; [3],21%
same,change of DAB1 Y198 tyrosine phosphorylation,[1]; [3],−34%
same,change of DOK2 Y142 tyrosine phosphorylation,[1]; [3],9%
same,change of EGFR Y1068 tyrosine phosphorylation,[1]; [3],−13%
same,change of EGFR Y1148 tyrosine phosphorylation,[1]; [3],−16%
same,change of EGFR Y1173 tyrosine phosphorylation,[1]; [3],68%
same,change of ERBB2 Y1248 tyrosine phosphorylation,[1]; [3],34%
same,change of GRIN2B Y1474 tyrosine phosphorylation,[1]; [3],29%
same,change of INSR Y999 tyrosine phosphorylation,[1]; [3],58%
same,change of INSR Y1189/Y1190 tyrosine phosphorylation,[1]; [3],27%
same,change of ITGB1 Y783 tyrosine phosphorylation,[1]; [3],−11%
same,change of JAK2 Y1007/Y1008 tyrosine phosphorylation,[1]; [3],−33%
same,change of KDR Y1054 + Y1059 tyrosine phosphorylation,[1]; [3],22%
same,change of KDR Y1054 tyrosine phosphorylation,[1]; [3],−37%
same,change of KIT Y703 tyrosine phosphorylation,[1]; [3],−60%
same,change of KIT Y730 tyrosine phosphorylation,[1]; [3],−47%
same,change of LIMK1 Y507 tyrosine phosphorylation,[1]; [3],−10%
same,change of MET Y1003 tyrosine phosphorylation,[1]; [3],−47%
same,change of PDGFRA Y742 tyrosine phosphorylation,[1]; [3],133%
same,change of PDGFRA Y754 tyrosine phosphorylation,[1]; [3],86%
same,change of PDGFRB Y716 tyrosine phosphorylation,[1]; [3],−36%
same,change of PRKCD Y313 tyrosine phosphorylation,[1]; [3],189%
same,change of PTK2 Y397 tyrosine phosphorylation,[1]; [3],30%
same,change of PTK2 Y576 tyrosine phosphorylation,[1]; [3],65%
same,change of PTK2 Y577 tyrosine phosphorylation,[1]; [3],−60%
same,change of PTK2 Y861 tyrosine phosphorylation,[1]; [3],−11%
same,change of PXN Y31 tyrosine phosphorylation,[1]; [3],19%
same,change of PXN Y118 tyrosine phosphorylation,[1]; [3],144%
same,change of SHC1 Y349 + Y350 tyrosine phosphorylation,[1]; [3],−10%
same,change of SRC Y419 tyrosine phosphorylation,[1]; [3],−6%
same,change of SRC Y530 tyrosine phosphorylation,[1]; [3],94%
same,change of STAT1 Y701 tyrosine phosphorylation,[1]; [3],38%
same,change of STAT2 Y690 tyrosine phosphorylation,[1]; [3],61%
same,change of STAT3 Y705 tyrosine phosphorylation,[1]; [3],182%
same,change of STAT5A Y694 tyrosine phosphorylation,[1]; [3],50%
same,change of VCL Y821 tyrosine phosphorylation,[1]; [3],−20%
same,change of ZAP70 Y292 tyrosine phosphorylation,[1]; [3],−46%
same,change of ZAP70 Y315 + Y319 tyrosine phosphorylation,[1]; [3],12%
same,Functional effect of P1-WD on ABL1,[1]; [4],IN
same,Functional effect of P1-WD on BLNK,[1]; [4],ACT
same,Functional effect of P1-WD on BMX,[1]; [4],IN
same,Functional effect of P1-WD on BTK,[1]; [4],IN
same,Functional effect of P1-WD on CDK2,[1]; [4],IN
same,Functional effect of P1-WD on CTTN,[1]; [4],IN
same,Functional effect of P1-WD on DAB1,[1]; [4],IN
same,Functional effect of P1-WD on DOK2,[1]; [4],ACT
same,Functional effect of P1-WD on ERBB2,[1]; [4],ACT
same,Functional effect of P1-WD on GRIN2B,[1]; [4],ACT
same,Functional effect of P1-WD on ITGB1,[1]; [4],IN
same,Functional effect of P1-WD on JAK2,[1]; [4],IN
same,Functional effect of P1-WD on KDR,[1]; [4],IN
same,Functional effect of P1-WD on KIT,[1]; [4],IN
same,Functional effect of P1-WD on LIMK1,[1]; [4],IN
same,Functional effect of P1-WD on MET,[1]; [4],IN
same,Functional effect of P1-WD on PDGFRA,[1]; [4],ACT
same,Functional effect of P1-WD on PDGFRB,[1]; [4],IN
same,Functional effect of P1-WD on PRKCD,[1]; [4],ACT
same,Functional effect of P1-WD on SHC1,[1]; [4],IN
same,Functional effect of P1-WD on STAT1,[1]; [4],ACT
same,Functional effect of P1-WD on STAT2,[1]; [4],ACT
same,Functional effect of P1-WD on STAT3,[1]; [4],ACT
same,Functional effect of P1-WD on STAT5A,[1]; [4],ACT
same,Functional effect of P1-WD on VCL,[1]; [4],IN
same,Functional effect of P1-WD on INSR,[1]; [5],ACT/ACT
same,Functional effect of P1-WD on PXN,[1]; [5],ACT/ACT
same,Functional effect of P1-WD on SRC,[1]; [5],IN/IN
same,Functional effect of P1-WD on ZAP70,[1]; [5],ACT/ACT
same,Functional effect of P1-WD on PTK2,"[1]; putative, inferred from literature data-mining, per p-Site Y397/Y577/Y576/Y861, cell wraps to r32 (/IN)",ACT/IN/ACT
same,Functional effect of P1-WD on EGFR,"[1]; putative, inferred from literature data-mining, per p-Site Y1068/Y1148/Y1173",IN/IN/ACT
TAT-ICD: fusion recombinant protein SEQ ID 5: PTPRG intracellular domain aa 797-1445 fused to 13 aa TAT sequence,circulating erythroblasts,"[2]; Hbb^th3/+ mice, Vehicle-treated 32.0",10.8*
same,circulating erythroblasts,"[2]; Wild-type mice, Vehicle-treated 0",0
